Experimental data published in PubChem BioAssay AID256 (DTP/NCI, 2004).
Toxic doses and inconclusive results are not listed. How the source made its calls: active means survival T/C of 150% or more; inactive means T/C below 125% in these data.

Tested on: CD2F1 mice, L1210 leukemia ip, survival T/C
Experiment: NCI In Vivo Anticancer Drug Screen. Data for tumor model L1210 Leukemia (intraperitoneal) in CD2F1 (CDF1) mice
Conditions: higher = longer survival
Outline: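 Vehicle-treated tumor-bearing mice served as controls (C) for compound-treated mice (T). Reported figure is T divided by C.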

[1] = endpoint: mean survival time, dose: 50.0 mg/kg/injection, schedule: Q01DX009 (ip), vehicle: saline with Tween-80
[2] = endpoint: mean survival time, dose: 100.0 mg/kg/injection, schedule: Q01DX009 (ip), vehicle: saline with Tween-80
[3] = endpoint: mean survival time, dose: 200.0 mg/kg/injection, schedule: Q01DX009 (ip), vehicle: saline with Tween-80
[4] = endpoint: mean survival time, dose: 100.0 mg/kg/injection, schedule: Q04DX003 (ip), vehicle: saline with Tween-80
[5] = endpoint: mean survival time, dose: 200.0 mg/kg/injection, schedule: Q04DX003 (ip), vehicle: saline with Tween-80
[6] = endpoint: mean survival time, dose: 400.0 mg/kg/injection, schedule: Q04DX003 (ip), vehicle: saline with Tween-80
[7] = endpoint: mean survival time, dose: 50.0 mg/kg/injection, schedule: Q01DX009 (ip), vehicle: Klucel (hydroxypropylcellulose) (HPC)
[8] = endpoint: mean survival time, dose: 75.0 mg/kg/injection, schedule: Q01DX001 (ip), vehicle: saline
[9] = endpoint: mean survival time, dose: 150.0 mg/kg/injection, schedule: Q01DX001 (ip), vehicle: saline

Measured: T/C

O=C(CNC(=O)Nc1cccc([N+](=O)[O-])c1)N/N=C/c1cccc(O)c1
inactive: [1] 92 % of control | [2] 95 % of control | [3] 95 % of control

Cc1ccc(C2(C#N)CCCC2)cc1
inactive: endpoint: mean survival time, dose: 100.0 mg/kg/injection, schedule: Q01DX009 (ip), vehicle: saline sonified 97 % of control | [4] 97 % of control | endpoint: mean survival time, dose: 200.0 mg/kg/injection, schedule: Q01DX009 (ip), vehicle: saline sonified 97 % of control | [5] 97 % of control | endpoint: mean survival time, dose: 400.0 mg/kg/injection, schedule: Q01DX009 (ip), vehicle: saline sonified 88 % of control | [6] 97 % of control

CC1CC/C(=N/NC(N)=O)C1 (centres undefined)
inactive: endpoint: mean survival time, dose: 50.0 mg/kg/injection, schedule: Q01DX001 (ip), vehicle: carboxymethylcellulose (CMC) 100 % of control | endpoint: mean survival time, dose: 100.0 mg/kg/injection, schedule: Q01DX001 (ip), vehicle: carboxymethylcellulose (CMC) 94 % of control | endpoint: mean survival time, dose: 200.0 mg/kg/injection, schedule: Q01DX001 (ip), vehicle: carboxymethylcellulose (CMC) 100 % of control | endpoint: mean survival time, dose: 400.0 mg/kg/injection, schedule: Q01DX001 (ip), vehicle: carboxymethylcellulose (CMC) 100 % of control

Cc1cc(OCC(=O)O)ccc1Cl
inactive: [7] 100 % of control | endpoint: mean survival time, dose: 100.0 mg/kg/injection, schedule: Q01DX009 (ip), vehicle: Klucel (hydroxypropylcellulose) (HPC) 104 % of control | endpoint: mean survival time, dose: 200.0 mg/kg/injection, schedule: Q01DX009 (ip), vehicle: Klucel (hydroxypropylcellulose) (HPC) 104 % of control

Nc1nc2c(ncn2C2CC(O)C(CO)O2)c(=O)n1N (centres undefined)
inactive: [8] 97 % of control | [9] 100 % of control

CCCC(C)(C)c1ccccc1
inactive: [1] 104 % of control | [2] 96 % of control | [3] 89 % of control

CC(C)N=C1C([O-])=N[N+](C)(C)N1C(C)C
inactive: [2] 106 % of control | endpoint: mean survival time, dose: 100.0 mg/kg/injection, schedule: Q04DX003 (ip), vehicle: saline 95 % of control | [3] 93 % of control | endpoint: mean survival time, dose: 200.0 mg/kg/injection, schedule: Q04DX003 (ip), vehicle: saline 98 % of control | endpoint: mean survival time, dose: 400.0 mg/kg/injection, schedule: Q01DX009 (ip), vehicle: saline with Tween-80 98 % of control | endpoint: mean survival time, dose: 400.0 mg/kg/injection, schedule: Q04DX003 (ip), vehicle: saline 110 % of control

Cn1c(=O)[nH]cc(C2OC(CO)C(O)C2O)c1=O (centres undefined)
inactive: endpoint: median survival time, dose: 12.5 mg/kg/injection, schedule: Q01DX005 (ip), vehicle: saline 103 % of control | endpoint: median survival time, dose: 25.0 mg/kg/injection, schedule: Q01DX005 (ip), vehicle: saline 100 % of control | endpoint: median survival time, dose: 50.0 mg/kg/injection, schedule: Q01DX005 (ip), vehicle: saline 92 % of control | endpoint: median survival time, dose: 100.0 mg/kg/injection, schedule: Q01DX005 (ip), vehicle: saline 100 % of control | endpoint: median survival time, dose: 200.0 mg/kg/injection, schedule: Q01DX005 (ip), vehicle: saline 107 % of control

[Cl][Pt+2][Cl].[NH-]c1ccc(S(N)(=O)=O)cc1.[NH-]c1ccc(S(N)(=O)=O)cc1
inactive: endpoint: mean survival time, dose: 25.0 mg/kg/injection, schedule: Q04DX003 (ip), vehicle: saline with Tween-80 90 % of control | endpoint: mean survival time, dose: 50.0 mg/kg/injection, schedule: Q04DX003 (ip), vehicle: saline with Tween-80 98 % of control | [4] 94 % of control | [5] 102 % of control | [6] 102 % of control

CCCCCCSC(=O)Nc1ccc(C)c(NC(=O)SCCCCCC)c1
inactive: [1] 95 % of control | [2] 93 % of control | [3] 93 % of control

C=C(C)C1(CC)C(=O)NC(=S)N(C)C1=O (centres undefined)
inactive: [8] 97 % of control | [9] 101 % of control | endpoint: mean survival time, dose: 300.0 mg/kg/injection, schedule: Q01DX001 (ip), vehicle: saline 101 % of control

N#[N+]c1c(O)ccc2ccccc12
inactive: endpoint: mean survival time, dose: 100.0 mg/kg/injection, schedule: Q04DX002 (ip), vehicle: saline with Tween-80 107 % of control | endpoint: mean survival time, dose: 200.0 mg/kg/injection, schedule: Q04DX002 (ip), vehicle: saline with Tween-80 103 % of control | endpoint: mean survival time, dose: 400.0 mg/kg/injection, schedule: Q04DX002 (ip), vehicle: saline with Tween-80 100 % of control

O=C1c2cc([N+](=O)[O-])ccc2-c2ccc([N+](=O)[O-])cc21
inactive: endpoint: mean survival time, dose: 12.5 mg/kg/injection, schedule: Q01DX009 (ip), vehicle: Klucel (hydroxypropylcellulose) (HPC) 98 % of control | endpoint: mean survival time, dose: 25.0 mg/kg/injection, schedule: Q01DX009 (ip), vehicle: Klucel (hydroxypropylcellulose) (HPC) 95 % of control | [7] 102 % of control
